Columns and labels:
Assay type in all cases: cell-based
HuH-7 = assay: Cytotoxicity secondary screen (IC50); settings: Homo sapiens, 48 h exposure, mean of triplicates, NE: no effect
Procedure: (§1) Cell culture. Skin normal fibroblastic cells are purchased from Lonza (Basel, Switzerland), HuH-7, Caco-2, MDA-MB-231, HCT-116, PC3, MCF7 and NCI-H727 cancer cell lines were obtained from ATCC (American Type Culture Collection). Cells are grown at 37 °C, 5% CO2 in ATCC recommended media: DMEM for HuH-7, MDA-MB-231, MDA-MB-468 and fibroblast, EMEM for MCF7 and CaCo-2, McCoy’s for HCT-116 and RPMI for PC3 and NCI-H727. All culture media are supplemented by 10% of FBS, 1% of penicillin-streptomycin and 2 mM glutamine.
(§2) Both studies have been performed following the protocols described in a previous paper, see ref. [2].

PC3 [1] = assay: Cytotoxicity secondary screen (IC50); settings: Homo sapiens, PC-3; 48 h exposure, mean of triplicates; NE: no effect
Procedure: as §1, §2

normal human fibroblasts = assay: Cytotoxicity secondary screen (IC50); settings: Fibroblast, 48 h exposure, mean of triplicates, NE: no effect, highest concentration tested 25 μM, read-out: IC50 Fibro
Procedure: as §1, §2

Caco-2 [2] = assay: Cytotoxicity secondary screen (IC50); settings: Homo sapiens, 48 h exposure, mean of triplicates, NE: no effect
Procedure: (§3) Next, we performed a cytotoxicity screening of the nineteen molecules 4a–s, at 25 μM, investigating seven representative cancer cell lines: hepatocellular carcinoma HuH-7, colorectal adenocarcinoma CaCo-2, breast carcinoma MDA-MB-231 and MDA-MB-468, colorectal carcinoma HCT-116, prostate carcinoma PC3 and breast carcinoma MCF7. […] For details see: ref. [2] and Supporting Information File 1, Table S1.
as §1, §2

HCT-116 = assay: Cytotoxicity secondary screen (IC50); settings: Homo sapiens, 48 h exposure, mean of triplicates, NE: no effect
Procedure: as §3, §1, §2

Caco-2 [3] = assay: Cytotoxicity primary screen (single dose); settings: single dose 25 μM, 48 h exposure, mean of triplicates
Procedure: as §3, §1, §2
(§4) Table S1: Cytotoxicity studies (single dose at 25µM) of N-arylbenzo[h]quinazolin-2-amines 4a–s
(§5) The toxicity is expressed as the percentage of cell survival (from 100 % to 0 %) over DMSO control after 48 h exposure (mean of triplicates).
(§6) Effect of the solvent (DMSO) was studied at 0.25%.

HuH7 = assay: Cytotoxicity primary screen (single dose); settings: Homo sapiens, Huh-7; single dose 25 μM, 48 h exposure, mean of triplicates; read-out: percentage of cell survival over DMSO control, HuH7
Procedure: as §3, §1, §2, §4, §5, §6

HCT116 = assay: Cytotoxicity primary screen (single dose); settings: Homo sapiens, HCT-116; single dose 25 μM, 48 h exposure, mean of triplicates; read-out: percentage of cell survival over DMSO control, HCT116
Procedure: as §3, §1, §2, §4, §5, §6

MCF7 [4] = assay: Cytotoxicity primary screen (single dose); settings: Homo sapiens, single dose 25 μM, 48 h exposure, mean of triplicates, read-out: percentage of cell survival over DMSO control, MCF7
Procedure: as §3, §1, §2, §4, §5, §6

MDA231 = assay: Cytotoxicity primary screen (single dose); settings: Homo sapiens, MDA-MB-231; single dose 25 μM, 48 h exposure, mean of triplicates; read-out: percentage of cell survival over DMSO control, MDA231
Procedure: as §3, §1, §2, §4, §5, §6

MDA468 = assay: Cytotoxicity primary screen (single dose); settings: single dose 25 μM, 48 h exposure, mean of triplicates; read-out: percentage of cell survival over DMSO control, MDA468
Procedure: as §3, §1, §2, §4, §5, §6

PC3 [5] = assay: Cytotoxicity primary screen (single dose); settings: Homo sapiens, PC-3; single dose 25 μM, 48 h exposure, mean of triplicates; read-out: percentage of cell survival over DMSO control, PC3
Procedure: as §3, §1, §2, §4, §5, §6

MDA-MB-231 = assay: Cytotoxicity secondary screen (IC50); settings: Homo sapiens, 48 h exposure, mean of triplicates, NE: no effect
MDA-MB-468 = assay: Cytotoxicity secondary screen (IC50); settings: Homo sapiens, 48 h exposure, mean of triplicates, NE: no effect
MCF7 [6] = assay: Cytotoxicity secondary screen (IC50); settings: Homo sapiens, 48 h exposure, mean of triplicates, NE: no effect

Structure (SMILES)	IC50 (HuH-7)	IC50 (PC3 [1])	IC50 (normal human fibroblasts)	IC50 (Caco-2 [2])	IC50 (HCT-116)	percentage of cell survival over DMSO control, CaCo-2 (Caco-2 [3])	viability at 25 µM (HuH7)	viability at 25 µM (HCT116)	viability at 25 µM (MCF7 [4])	viability at 25 µM (MDA231)	viability at 25 µM (MDA468)	viability at 25 µM (PC3 [5])	IC50 (MDA-MB-231)	IC50 (MDA-MB-468)	IC50 (MCF7 [6])
Cc1cccc(Nc2ncc3ccc4ccccc4c3n2)c1 [Compound 4c, N-(m-tolyl)benzo[h]quinazolin-2-amine]	> 25 µM	> 25 µM	> 25 µM	28 µM	18 µM	50%	68%	52%	50%	81%	65%	60%	> 25 µM	22 µM	30 µM
Clc1cccc(Nc2ncc3ccc4ccccc4c3n2)c1 [Compound 4l, N-(3-chlorophenyl)benzo[h]quinazolin-2-amine]	22 µM	26 µM	> 25 µM	17 µM	24 µM	38%	71%	56%	68%	67%	78%	59%	> 25 µM	26 µM	18 µM
Fc1ccc(Nc2ncc3ccc4ccccc4c3n2)cc1 [Compound 4j, N-(4-fluorophenyl)benzo[h]quinazolin-2-amine]						77%	92%	81%	81%	91%	95%	78%			
Brc1cc(Br)cc(Nc2ncc3ccc4ccccc4c3n2)c1 [Compound 4o, N-(3,5-dibromophenyl)benzo[h]quinazolin-2-amine]	24 µM	21 µM	> 25 µM	16 µM	23 µM	46%	62%	27%	85%	67%	47%	38%	> 25 µM	20 µM	21 µM
Clc1cc(Br)cc(Nc2ncc3ccc4ccccc4c3n2)c1 [Compound 4q, N-(3-bromo-5-chlorophenyl)benzo[h]quinazolin-2-amine]	16 µM	19 µM	> 25 µM	14 µM	13 µM	35%	49%	13%	73%	41%	38%	24%	20 µM	19 µM	14 µM
Clc1ccccc1Nc1ncc2ccc3ccccc3c2n1 [Compound 4k, N-(2-chlorophenyl)benzo[h]quinazolin-2-amine]	> 25 µM	> 25 µM	> 25 µM	> 25 µM	> 25 µM	61%	76%	83%	56%	91%	93%	73%	> 25 µM	> 25 µM	> 25 µM
Clc1ccc(Nc2ncc3ccc4ccccc4c3n2)cc1 [Compound 4m, N-(4-chlorophenyl)benzo[h]quinazolin-2-amine]						75%	96%	68%	88%	83%	88%	74%			
COc1cccc(Nc2ncc3ccc4ccccc4c3n2)c1 [Compound 4f, N-(3-methoxyphenyl)benzo[h]quinazolin-2-amine]	23 µM	26 µM	> 25 µM	4.3 µM	10 µM	59%	59%	29%	78%	77%	73%	54%	> 25 µM	33 µM	> 25 µM
Cc1cc(Nc2ncc3ccc4ccccc4c3n2)ccc1Br [Compound 4r, N-(4-bromo-3-methylphenyl)benzo[h]quinazolin-2-amine]						76%	80%	100%	85%	101%	96%	89%			
Fc1cc(Nc2ncc3ccc4ccccc4c3n2)cc(F)c1F [Compound 4s, N-(3,4,5-trifluorophenyl)benzo[h]quinazolin-2-amine]						65%	77%	63%	54%	78%	78%	50%			
Fc1cc(Cl)cc(Nc2ncc3ccc4ccccc4c3n2)c1 [Compound 4p, N-(3-chloro-5-fluorophenyl)benzo[h]quinazolin-2-amine]						54%	80%	17%	91%	68%	72%	59%			
Fc1ccc(Nc2ncc3ccc4ccccc4c3n2)cc1F [Compound 4n, N-(3,4-difluorophenyl)benzo[h]quinazolin-2-amine]						72%	79%	82%	97%	91%	85%	82%			
COc1ccccc1Nc1ncc2ccc3ccccc3c2n1 [Compound 4e, N-(2-methoxyphenyl)benzo[h]quinazolin-2-amine]	> 25 µM	> 25 µM	> 25 µM	20 µM	26 µM	59%	55%	8%	82%	40%	46%	21%	25 µM	25 µM	22 µM
Fc1ccccc1Nc1ncc2ccc3ccccc3c2n1 [Compound 4h, N-(2-fluorophenyl)benzo[h]quinazolin-2-amine]	> 25 µM	> 25 µM	> 25 µM	4.6 µM	> 25 µM	48%	81%	82%	83%	83%	94%	74%	> 25 µM	> 25 µM	> 25 µM
COc1ccc(Nc2ncc3ccc4ccccc4c3n2)cc1 [Compound 4g, N-(4-methoxyphenyl)benzo[h]quinazolin-2-amine]						81%	79%	72%	83%	87%	90%	82%			

Reference: publication PMC11496704, “Synthesis and cytotoxicity studies of novel N-arylbenzo[h]quinazolin-2-amines” (Beilstein Journal of Organic Chemistry, 2024)
